Where two headings read alike, the source gives them in different places.
How the values were obtained:
[1] = tested on: MLP 29 cells; test: Flow cytometry of apoptosis induced by TNF-α plus actinomycin D; type: cell-based, mouse
Experimental: Output of multiparametric FACS analyses. Mouse liver progenitor cells, MLP 29, are incubated for one hour with either no addition (first lane, FIG. 3C(a)), 9 mM MSO (second lane, FIG. 3C(b)), or 9 mM BSO (third lane, FIG. 3C(c)), then exposed for 10 hours to either no addition—(BAS, first column), TNF-α plus actinomycin D (second column), or actinomycin D alone (third column). Viable cells (V) are delimited by the quadrant. Apoptotic cells display mitochondrial depolarization (reduced TMRM staining) and/or expose phosphatidylserine on their surface (increased Annexin V-FITC staining). Propidium iodide-positive, i.e. dead cells (PI), are evaluated on a PI vs TMRM diagram (not shown); these cells are excluded from the reported plots, but the percentage of propidium iodide positive (i.e. dead) cells is shown in each box (PI), as is the percentage of viable cells (V);
Samples were analyzed on a FACSCalibur flow cytometer (Becton Dickinson, San Diego, Calif.). Data acquisition was performed using CellQuest software and data analysis with WinMD1 software. Each experiment was repeated at least four times.

[2] = i.p. injection of 50 mg/kg
[3] = tested on: STAT3; settings: liver homogenates; both LPS/D-GalN treated and untreated mice
Experimental: (§1) Immunoblots of cleaved caspase-3 and phospho-STAT proteins: Liver homogenates were prepared from male mice five hours after IP administration of LPS/D-GalN. […] Glyceraldehyde-3-phosphate dehydrogenase (GAPDH—Chemicon, Milano, Italy) was used as a loading control).

[4] = tested on: STAT1; settings: liver homogenates, five hours after LPS/D-GalN
Experimental: as §1

[5] = tested on: caspase-3; settings: mouse, in vivo
Experimental: as §1

[6] = tested on: TNF-α
Text: (§2) FIG. 6A, FIG. 6B, and FIG. 6C illustrate ELISA quantitation cytokine levels in plasma from LPS/D-GalN treated mice. The time zero values show the levels of each cytokine in negative control mice, not treated with LPS/D-GalN but injected with either saline (n=7) or MSO (n=7) three hours prior to be killed. […] For each cytokine, open circles represent cytokine levels in plasma isolated from mice pretreated with saline, and open diamonds represent cytokine levels in plasma isolated from mice pretreated with MSO prior to LPS/D-GalN treatment. FIG. 6A illustrates TNF-α levels. FIG. 6B illustrates IFN-γ levels. FIG. 6C illustrates IL-6 levels; and
(§3) Tissue and plasma were collected from male mice, which were divided into two groups. One group was injected with saline three hours prior to LPS/D-GalN injections. The second group was given MSO three hours prior to being injected with LPS/D-GalN. Control mice (t=0) were treated with MSO or saline for 3 hours and then euthanized (not exposed to LPS/D-GalN). After LPS/D-GalN injection at time zero, tissue and plasma samples were collected at one-hour time intervals from 1 to 5 hours.
(§4) Plasma was obtained by transferring blood to plasma separator tubes containing lithium heparin (BD Microtainer tubes). Plasma samples were immediately frozen on dry ice and stored at −80° C.
(§5) TNF-α, IFN-γ, and IL-6 ELISA kits were obtained from eBioscience, and experiments were performed using the manufacturer's guidelines for 96-well plate experiments. One hundred microliters of plasma was used per well.

[7] = tested on: IL-6; settings: 3 hours after LPS/D-GalN; without MSO peak 401±14 at two hours
Text: as §2, §3, §4, §5

[8] = tested on: IFN-γ
Text: as §2, §3, §4, §5

[9] = tested on: CD1 mice treated with LPS/D-GalN; test: Survival of mice with LPS/D-GalN induced acute liver failure; type: in vivo, mouse; settings: 50 mg/kg IP three hours prior to LPS/D-GalN
Text: Six to eight week old CD1 mice are obtained from Charles River. Animals were housed in Wayne State University or University of Padova, Vallisneri Interdepartmental Complex animal quarters until the time of the experiment. Food was withdrawn the night before the day of the experiment. All experiments were approved by the Animal Investigation Committee of Wayne State University or by the Authority of the University of Padova and authorized by the Italian Ministry of Health.
Animals were divided into two groups. Group one animals consisted of both male and female mice injected with LPS and D-GalN to induce hepatic failure. Survival was monitored post LPS/D-GalN administration and the time of injection was considered to be zero hour (t=0). Group two animals consisted of mice injected with MSO three hours prior to LPS and D-GalN administration. […] […] For analysis of the effect of MSO treatment on the cell death pathway activated by the Fas ligand, mice were pre-treated with MSO as described above, and at time zero were injected with Jo2 antibody ([…]).
(§6) Animals were monitored continuously post LPS/D-GalN or Jo2 administration. […] The time of death was recorded as hours after LPS/D-GalN injection. Fisher's exact test was used to determine two-tailed p values for the statistical between the treated and untreated groups.

[10] = molecular target: T1, glutamine synthetase (Mus musculus, UniProt P15105); test: Glutamine synthetase activity in liver extracts of treated mice; type: in vivo
T1 construct: liver homogenates were prepared from liver tissue excised and immediately homogenized; from tissue; host or cells: mouse liver homogenate supernatant
T1 sequence (P15105 2-373 limits assumed): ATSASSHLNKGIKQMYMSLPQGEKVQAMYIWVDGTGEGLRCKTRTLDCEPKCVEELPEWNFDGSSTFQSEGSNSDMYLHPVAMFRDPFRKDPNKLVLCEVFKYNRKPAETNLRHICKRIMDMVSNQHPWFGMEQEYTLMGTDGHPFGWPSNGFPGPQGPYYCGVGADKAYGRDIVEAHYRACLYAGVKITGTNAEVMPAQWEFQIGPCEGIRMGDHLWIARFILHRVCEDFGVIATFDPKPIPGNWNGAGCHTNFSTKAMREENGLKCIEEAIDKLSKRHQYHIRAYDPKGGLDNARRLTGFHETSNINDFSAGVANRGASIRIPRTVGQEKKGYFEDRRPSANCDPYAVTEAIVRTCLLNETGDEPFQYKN
Experimental: as §3
To analyze enzyme activities liver homogenates were prepared from liver tissue excised and immediately homogenized in ice-cold buffer consisting of 250 mM sucrose, 10 mM Tris and 0.1 mM EGTA with protease inhibitor cocktail (Sigma #P8340). The homogenized tissue was centrifuged at 2375×g for 5 min. The tissue supernatant fraction was frozen on dry ice and stored at −80° C.
Glutamine synthetase was assayed as described by Meister, A. Glutamine synthetase from mammalian tissues. […] The reaction with the substrates glutamine and hydroxylamine was stopped using ferric chloride stop solution (0.37 M FeCl3, 0.67 M HCl, 0.20 M TCA) and the colorimetric product formed—γ-glutamyl hydroxamate—was measured at 535 nm. The absorbance values were converted to activities by comparison to a standard curve of pure glutamyl hydroxamate (a generous gift from Arthur J. Cooper, Department of Biochemistry and Molecular Biology, New York Medical College).

[11] = tested on: CD1 mice injected with Jo2 antibody; settings: mouse, in vivo
Experimental: Animals were divided into two groups. Group one animals consisted of both male and female mice injected with LPS and D-GalN to induce hepatic failure. Survival was monitored post LPS/D-GalN administration and the time of injection was considered to be zero hour (t=0). Group two animals consisted of mice injected with MSO three hours prior to LPS and D-GalN administration. […] MSO (50 mg/kg body weight, Sigma #M5379) was also prepared in saline and administered IP. For analysis of the effect of MSO treatment on the cell death pathway activated by the Fas ligand, mice were pre-treated with MSO as described above, and at time zero were injected with Jo2 antibody ([…]).
as §6

[12] = tested on: peritoneal macrophages; settings: 9 mM MSO, over the time course of the macrophage experiments
Experimental: Macrophages coordinate the early phases of LPS-induced inflammatory response, through the synthesis of TNF-α and other cytokines. In vitro experiments were conducted to directly test if MSO inhibits TNF-α production on LPS-stimulated macrophages obtained from mouse peritoneum. Macrophages were triggered with LPS with or without MSO, wherein the MSO was added either three hours before, one hour after, or at the same time as LPS. Four hours after LPS addition, TNF-α in the culture supernatant was quantitated by ELISA, as described in Methods.

SMILES: CS(=N)(=O)CC[C@H](N)C(=O)O (some centres unmarked) [MSO, methionine sulfoximine]
- rescue of cells from apoptosis induced by TNF-α [1]: neither MSO nor BSO could rescue cells
- lowering of plasma glutamine concentrations [2]: about 50%
- phosphorylated STAT3 [3]: decreased
- increase in STAT1 activation by LPS/D-GalN [4]: eliminated
- caspase-3 activation [5]: completely prevented
- plasma TNF-α level throughout the time course ([6]; 1 to 5 hours after LPS/D-GalN): < 200 pg/mL
- plasma TNF-α level, peak, mean ± SEM ([6]; 1 hour after LPS/D-GalN, saline pretreated 590±91, p<0.001): 112 ± 35 pg/mL
- plasma TNF-α level in control mice ([6]; t=0, injected three hours previously, not exposed to LPS/D-GalN, n=7): not detectable
- plasma IL-6 level, peak, mean ± SEM [7]: 325 ± 27 pg/mL
- plasma IFN-γ level ([8]; 1 hour after LPS/D-GalN, without MSO 0.84±0.25): 0.19 ± 0.05 pg/mL
- plasma IFN-γ level ([8]; 4 hours after LPS/D-GalN, without MSO 41±11, p 0.01): 5.0 ± 3.0 pg/mL
- female survival ([9]; female CD1 mice, n=14, without pretreatment 27%, p<0.005): 81%
- male survival ([9]; male CD1 mice, n=21, without pretreatment 19%, p<0.002): 71%
- glutamine synthetase activity relative to animals pre-treated with saline ([10]; liver extracts, 50 mg/kg IP three hours prior to LPS/D-GalN, all time points): less than 10%
- inhibition of glutamine synthetase in the liver ([10]; long term MSO treatment): 90%
- effect on survival after Fas pathway induction [11]: no effect on survival
- effect on cell viability (trypan blue) [12]: no effect

From patent publication US9119821B2, “Use of methionine sulfoximine to treat acute liver failure and other diseases caused by an inflammatory cytokine response” (priority 2010, dated 2015)
